We go through 1 compound from patent publication US20260258500A1, “BIOMARKER FOR METASTATIC BLADDER CANCER” (DONG-A UNIVERSITY RESEARCH FOUNDATION FOR INDUSTRY-ACADEMY …, priority 2022, published 2026).

Each structure is given as a SMILES string.

What all share (format): cell-based, human
Assay [1] relates to GRCB cell lines (gemcitabine-resistant 5637). Briefly: MTT cell viability / IC50 for gemcitabine, GRCB cell lines. How it is done: (§1) To analyze stepwise molecular mechanisms occurring during a process of anticancer drug resistance in bladder cancer patients, bladder cancer cell lines having resistance to gemcitabine (GEM) as a representative anticancer drug for bladder cancer were constructed. Specifically, five candidate groups A to E of the 5637 cell line were treated with 5 μM GEM (Eli Lilly and company, IN, USA) and cultured for 3 days. Thereafter, the residual cells were washed with phosphate-buffered saline (PBS) and replaced with a new medium. The process was repeated until the cells recovered to 90% confluency, and after each stage was completed, several cell stocks in the same state were stored in liquid nitrogen. Thereafter, the recovered cells were inoculated in a plate and additionally treated with GEM. A total of 15-phase GEM-resistant bladder cancer cell lines were constructed using the method, which were named GRCA, GRCB, GRCC, GRCD, and GRCE according to each group.
(§2) For cell proliferation analysis, 1×10^3 cells were seeded in a 96-well plate and cultured for 24 hours. Thereafter, the cells were treated with 1 μM GEM for 0, 24, 48, and 72 hours, and cell viability was measured at each time point. The cells were then treated with thiazolyl blue tetrazolium bromide (MTT) (Sigma-Aldrich, St. Louis, MO, USA) and reacted for 1 hour. After the reaction was completed, the medium containing MTT was fully removed, and MTT formazan was dissolved using dimethyl sulfoxide (DMSO, Duchefa Biochemie, BH Haarlem, Netherlands). Thereafter, the absorbance was measured at 540 nm using a spectrophotometer microplate reader (Victor 3).

In assay [2] the test system is 5637 parental cell line (P0). Briefly: MTT cell viability after gemcitabine treatment, parental cell line. The settings on record: C of FIG. 1. The procedure: as §2
Assay [3] deals with GRCA cell lines (gemcitabine-resistant 5637). The experiment in a line: MTT cell viability / IC50 for gemcitabine, GRCA cell lines. The procedure: as §1, §2
The mark [4] stands for this setting: P15 cell line, compared to other candidate groups, C of FIG. 1.

With `Nc1ccn([C@@H]2O[C@H](CO)[C@@H](O)C2(F)F)c(=O)n1` [GEM, gemcitabine], the “IC50 values for GEM” value in assay [1] (P0, P3, P7, P15 cell lines, B of FIG. 2) is given as “increased in a phase-dependent manner”; in assay [3] (P0, P3, P7, P15 cell lines, A of FIG. 2) it was “increased in a phase-dependent manner”. Further, the “Resistance to GEM (cell viability)” value in assay [1] (setting [4]) is on record as “significantly highly resistant”; in assay [2], “sensitive”; in assay [3] (setting [4]) it was “significantly highly resistant”. For the same compound, the “Resistance to GEM across stages” value in assay [1] (stages P0, P2, P3, P5, P7, P10, P15, E of FIG. 1) is “increased in a phase-dependent manner”; in assay [3] (stages P0, P2, P3, P5, P7, P10, P15, D of FIG. 1) it was “increased in a phase-dependent manner”.
